According to article PMC11040118 (Heliyon, 2024):
Read-outs that look alike come from different tables or passages of the source. Each block holds one compound with its values, some of them ahead of it.

Biological target: T1, Thyroperoxidase (TPO) (Rattus norvegicus, UniProt P14650)
T1 sequence (P14650 32-914): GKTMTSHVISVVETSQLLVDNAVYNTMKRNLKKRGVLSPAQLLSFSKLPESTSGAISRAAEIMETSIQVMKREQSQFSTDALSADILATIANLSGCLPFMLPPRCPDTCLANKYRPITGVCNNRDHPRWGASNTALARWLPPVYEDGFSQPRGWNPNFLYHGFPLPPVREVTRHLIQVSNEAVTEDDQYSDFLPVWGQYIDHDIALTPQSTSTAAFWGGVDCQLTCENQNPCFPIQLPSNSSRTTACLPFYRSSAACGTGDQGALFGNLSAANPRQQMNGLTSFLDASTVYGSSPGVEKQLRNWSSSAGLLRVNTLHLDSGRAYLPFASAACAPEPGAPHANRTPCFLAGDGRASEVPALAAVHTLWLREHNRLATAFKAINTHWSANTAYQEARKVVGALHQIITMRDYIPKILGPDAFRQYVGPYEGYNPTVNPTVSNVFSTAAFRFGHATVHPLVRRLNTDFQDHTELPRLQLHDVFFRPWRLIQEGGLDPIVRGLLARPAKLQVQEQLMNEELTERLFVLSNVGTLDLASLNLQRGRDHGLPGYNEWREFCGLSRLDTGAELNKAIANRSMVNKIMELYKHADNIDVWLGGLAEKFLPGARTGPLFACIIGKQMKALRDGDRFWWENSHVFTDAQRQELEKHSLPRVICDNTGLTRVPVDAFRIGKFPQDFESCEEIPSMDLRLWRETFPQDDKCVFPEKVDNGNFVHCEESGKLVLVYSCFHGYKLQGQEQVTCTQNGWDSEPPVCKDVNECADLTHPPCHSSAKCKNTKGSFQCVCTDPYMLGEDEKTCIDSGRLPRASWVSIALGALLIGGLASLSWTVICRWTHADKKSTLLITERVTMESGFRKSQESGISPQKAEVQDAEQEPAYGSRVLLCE
Type: biochemical

[1] = AVG IC50 ± SD, L-Tyr to MIT, rat thyroid microsomes, mean of N = 3 ± SD
[2] = Actual pIC50, in vitro value repeated in Table 2 for comparison with the models
[3] = Log10 Value of AVG IC50, L-Tyr to MIT, from average IC50, Table 1

IC50 [1]: 710 ± 50 nM | IC50 [2]: 724 nM
Structure (SMILES): Oc1ccc(/C=C/c2cc(O)cc(O)c2)cc1 [Reservatrol, Resveratrol]

IC50 [1]: 4930 ± 1970 nM | IC50 [2]: 5010 nM | IC50 [3]: 5010 nM
Structure (SMILES): O=c1c(O)c(-c2ccc(O)cc2)oc2cc(O)cc(O)c12 [Kaemferol, Kaempferol]

IC50 [1]: 1510 ± 170 nM | IC50 [2]: 1550 nM | IC50 [3]: 1550 nM
Structure (SMILES): COc1cc(CCC(=O)CC(=O)CCc2ccc(O)c(OC)c2)ccc1O [Tetrahydro curcumin, Tetrahydrocurcumin]

IC50 [1]: 7770 ± 2710 nM | IC50 [2]: 7940 nM | IC50 [3]: 7940 nM
Structure (SMILES): CC[C@H](c1ccc(O)cc1)[C@@H](CC)c1ccc(O)cc1 [Hexestrol]

IC50 [1]: 790 ± 340 nM | IC50 [2]: 813 nM | IC50 [3]: 813 nM
Structure (SMILES): O=C(O)c1cc(O)c(O)c(O)c1 [Gallic acid hydrate]

The remaining lines, values behind:

Structure (SMILES): Oc1ccc(OCc2ccccc2)cc1 [4-Benzyloxy phenol, 4-Benzyloxyphenol]
IC50 [1]: 8760 ± 1360 nM | IC50 [2]: 8910 nM | IC50 [3]: 8910 nM

Structure (SMILES): O=C(O[C@@H]1Cc2c(O)cc(O)cc2O[C@@H]1c1cc(O)c(O)c(O)c1)c1cc(O)c(O)c(O)c1 [Epigallocatechin gallate]
Log10 Value of AVG IC50, L-Tyr to MIT (from average IC50, Table 1): 6.48 | Actual pIC50 (in vitro value repeated in Table 2 for comparison with the models): 6.48

Structure (SMILES): NC(=S)Nc1ccccc1 [Phenylthiourea]
IC50 [1]: 2730 ± 690 nM | IC50 [2]: 2750 nM

Structure (SMILES): COc1cc(/C=C/C(=O)CC(=O)/C=C/c2ccc(O)c(OC)c2)ccc1O [Curcumin]
IC50 [1]: 1810 ± 430 nM | IC50 [2]: 1820 nM
